How the values were obtained:
[1] = tested on: cancer-associated fibroblasts (CAFs); assay: Changes in the intracellular cGMP level in response to natriuretic peptide stimulus, CAFs; assay type: cell-based, human; details: 1×10^−11 M to 1×10^−6 M, 10 minutes, FIG. 1B
Protocol: For obtaining CAFs (cancer-associated fibroblasts), tissue harvested from a patient having lung cancer surgery was subjected to primary culture after the consent of the patient was obtained. The cells were then cultured in DMEM culture medium containing 10% FCS under 5% CO2 at 37° C., and the cells of the 5th and earlier passages were used.
The A549 cells were cultured in a 24-well dish at 4×10^4 cells/well, and the culture medium was replaced with DMEM culture medium free from FCS the next day. The CAFs were cultured in a 24-well dish at 1×10^4 cells/well, and the culture medium was replaced with DMEM culture medium containing 1% FCS the next day.
To these culture media, solutions of hANP, hBNP, and hCNP-22 (final concentration: ten-fold serial dilution from 1×10^−11 M to 1×10^−6 M, the same amount of physiological saline was used as a control) were separately added. After 10 minutes had passed, 400 μL of cooled 70% ethanol (containing 0.1 N hydrochloric acid) was added, and ultrasonication was performed for a short time. The treated solution was lyophilized, and the cGMP level was measured using Cyclic GMP Assay kit (made by Yamasa Corp.).

[2] = tested on: A549 cells and CAFs; assay: Mouse models having transplanted cancer cells and CAFs, administration started after tumor tissue was established (Example 6); assay type: in vivo; details: hANP alone 0.5 μg/kg/min, started 2 weeks after transplantation, 4 weeks, FIG. 10
Protocol: In this Example and Example 6, 5-week-old male immunodeficient mice (KSN mice, Japan SLC, Inc.) were used. The osmotic pumps used were MODEL2004 (for 28-day administration) made by ALZET (Cupertino, Calif.). A mixed suspension of the A549 cells and the CAFs was prepared using DMEM free from FBS so as to contain the A549 cells at 1×10^6 cells/100 μL and the CAFs at 0.5×10^6 cells/100 μL. The mixed suspension in an amount of 100 μL per mouse was subcutaneously injected in the back of the immunodeficient mice. […] After 2 weeks of observation from the injection of the cell suspension, the mice to which the mixed suspension had been injected were randomly divided into 4 groups (control group, ANP group, CNP group, and ANP+CNP group), and an osmotic pump appropriately adjusted for each group as shown below was subcutaneously implanted to start administration. • Control group and A549 group: physiological saline was administered • ANP group: hANP was administered at 0.5 μg/kg/min • CNP group: hCNP-22 was administered at 2.5 μg/kg/min • ANP+CNP group: hANP was administered at 0.5 μg/kg/min and hCNP-22 was administered at 2.5 μg/kg/min Observation was further continued for 4 weeks after the start of administration, the tumor size at the cell injection site was measured weekly, and tumor volume was calculated in the same way as in Example 5 (FIG. 10).

CC[C@H](C)[C@@H]1NC(=O)[C@H](CCCNC(=N)N)NC(=O)[C@H](CC(=O)O)NC(=O)[C@H](CCSC)NC(=O)[C@H](CCCNC(=N)N)NC(=O)CNC(=O)CNC(=O)[C@H](Cc2ccccc2)NC(=O)[C@@H](NC(=O)[C@H](CO)NC(=O)[C@H](CO)NC(=O)[C@H](CCCNC(=N)N)NC(=O)[C@H](CCCNC(=N)N)NC(=O)[C@H](CC(C)C)NC(=O)[C@@H](N)CO)CSSC[C@@H](C(=O)N[C@@H](CC(N)=O)C(=O)N[C@@H](CO)C(=O)N[C@@H](Cc2ccccc2)C(=O)N[C@@H](CCCNC(=N)N)C(=O)N[C@@H](Cc2ccc(O)cc2)C(=O)O)NC(=O)CNC(=O)[C@H](CC(C)C)NC(=O)CNC(=O)[C@H](CO)NC(=O)[C@H](CCC(N)=O)NC(=O)[C@H](C)NC(=O)CNC1=O [hANP]
cGMP level of the CAFs [1]: did not show such an action
tumor growth as compared with the control group [2]: showed an effect of tumor growth suppression
